US20250296971A1, “GASTRIC INHIBITORY PEPTIDE RECEPTOR LIGANDS” (priority 2021, published 2025)
*1 amine or outer side, *2 acyl side, *3 side chain or, on linkers, in order; H or OH if unused. Where a SMILES comes first, the peptide text is derived from it. Bridges are numbered along the chain shown (N, C = ends). [ ]: non-standard residue; d: D form. The star is where a group is joined. X5 = NC(=O)[C@H](CCCCNC(=O)CN1CCN(CC(=O)O)CCN(CC(=O)O)CCN(CC(=O)O)CC1)NC(=O)CCC(=O)NCCCOCCOCCOCCCN*; X19 = O=C(O)CN1CCN(CC(=O)O)CCN(CC(=O)N2CCN(Cc3cc(C[*:1])cc(C[*:2])c3)CC2)CCN(CC(=O)O)CC1; X3 = O=C(O)CN1CCN(CC(=O)O)CCN(CC(=O)NCCCOCCOCCOCCCN*)CCN(CC(=O)O)CC1; NH(1-deoxy-D-glucityl) = OC[C@@H](O)[C@@H](O)[C@H](O)[C@@H](O)CN*; X26 = O=C(O)CN1CCN2CCN(CCN(CC(=O)*)CC1)CC(=O)[O][Zn][O]C(=O)C2; Trp(5-Cl) = N[C@@H](Cc1c[nH]c2ccc(Cl)cc12)C(=O)O; Trp(6-Cl) = N[C@@H](Cc1c[nH]c2cc(Cl)ccc12)C(=O)O; Propanoyl(3-(4-F-phenyl)) = O=C(CCc1ccc(F)cc1)*; Trp(6-F) = N[C@@H](Cc1c[nH]c2cc(F)ccc12)C(=O)O; 1Nal = N[C@@H](Cc1cccc2ccccc12)C(=O)O; Desaminotyrosyl = O=C(CCc1ccc(O)cc1)*; mXylylene = c1cc(C[*:1])cc(C[*:2])c1; Glutaryl = O=C(CCCC(=O)[*:2])[*:1]; Hydrocinnamoyl = O=C(CCc1ccccc1)*; X6 = c1cc(CSCCN[*:2])nc(C[*:1])c1; X7 = c1cc(CSCCN[*:2])cc(C[*:1])c1; Hyp = O=C(O)[C@@H]1C[C@@H](O)CN1; tBuAla = CC(C)(C)C[C@H](N)C(=O)O; Cha = N[C@@H](CC1CCCCC1)C(=O)O; Suc = O=C(CCC(=O)[*:2])[*:1]; Api = NC1(C(=O)O)CCNCC1; Thp = NC1(C(=O)O)CCOCC1; Deg = CCC(N)(CC)C(=O)O; Aib = CC(C)(N)C(=O)O

Biological target: T1, GIPR (CHO-K1-hGIPR cells) (Homo sapiens, UniProt P48546)
T1 construct: host or cells: CHO-K1
T1 sequence (P48546 22-466): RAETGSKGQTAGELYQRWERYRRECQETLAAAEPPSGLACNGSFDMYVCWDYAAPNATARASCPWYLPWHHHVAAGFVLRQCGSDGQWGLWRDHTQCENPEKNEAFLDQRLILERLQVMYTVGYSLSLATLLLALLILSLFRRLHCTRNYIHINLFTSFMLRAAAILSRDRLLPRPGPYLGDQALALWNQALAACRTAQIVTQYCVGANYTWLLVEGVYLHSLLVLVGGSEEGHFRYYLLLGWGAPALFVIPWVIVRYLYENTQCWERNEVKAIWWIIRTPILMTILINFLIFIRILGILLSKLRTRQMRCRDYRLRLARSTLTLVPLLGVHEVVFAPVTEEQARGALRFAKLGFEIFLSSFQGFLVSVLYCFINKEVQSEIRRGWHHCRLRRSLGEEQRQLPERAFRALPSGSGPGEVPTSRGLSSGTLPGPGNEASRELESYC
Test: FACS binding assay
Conditions: competition with 20 nM GIP-057, 4° C., 1 hour, read-out: pIC50 Category (converted)
Summary of the method: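 Steps: detach CHO-K1-hGIPR cells (Accutase); wash in PBS/1% FCS; adjust to 500.000 cells per mL; wash ice-cold; incubate APC-streptavidin 1 μg/mL, 30 min on ice; wash twice; acquire on flow cytometer; fit MFI-concentration data with a four-parameter logistic model.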

Structure (SMILES)	IC50
CC[C@H](C)[C@@H]1NC(=O)[C@H](CC(C)C)NC(=O)C(C)(C)NC(=O)[C@@H](NC(=O)[C@H](CC(C)(C)C)NC(=O)[C@H](CCC(=O)O)NC(=O)[C@@H]2CCCN2C(=O)[C@H](Cc2c[nH]c3ccccc23)NC(=O)[C@H](Cc2c[nH]c3ccccc23)NC(=O)[C@H](CC(=O)O)NC(C)=O)CSCc2cccc(c2)CSC[C@@H](C(=O)NCCCOCCOCCOCCCNC(=O)CCC(=O)N[C@@H](CCCCNC(=O)CN2CCN(CC(=O)O)CCN(CC(=O)O)CCN(CC(=O)O)CC2)C(N)=O)NC1=O [GIP-132, Ac-Asp-Trp-Trp-Pro-Glu-Npg-[Cys(3MeBn)-Aib-Leu-Ile-Cys]-Ttds-Lys(DOTA)-NH2] (Ac-DWWPE[tBuAla]C[Aib]LIC-X5; linker 7-11 via mXylylene)	10 to 79.4 nM
CC[C@H](C)[C@@H]1NC(=O)[C@H](CC(C)(C)C)NC(=O)C(C)(C)NC(=O)[C@@H](NC(=O)[C@H](CC(C)C)NC(=O)[C@H](CCC(=O)O)NC(=O)[C@@H]2CCCN2C(=O)[C@H](Cc2c[nH]c3ccccc23)NC(=O)[C@H](Cc2c[nH]c3ccccc23)NC(=O)[C@H](CC(=O)O)NC(C)=O)CSCc2cccc(c2)CSC[C@@H](C(=O)NCCCOCCOCCOCCCNC(=O)CCC(=O)N[C@@H](CCCCNC(=O)CN2CCN(CC(=O)O)CCN(CC(=O)O)CCN(CC(=O)O)CC2)C(N)=O)NC1=O [GIP-133, Ac-Asp-Trp-Trp-Pro-Glu-Leu-[Cys(3MeBn)-Aib-Npg-Ile-Cys]-Ttds-Lys(DOTA)-NH2] (Ac-DWWPELC[Aib][tBuAla]IC-X5; linker 7-11 via mXylylene)	10 to 79.4 nM
CC[C@H](C)[C@@H]1NC(=O)[C@H](CC2CCCCC2)NC(=O)C(C)(C)NC(=O)[C@@H](NC(=O)[C@H](CC(C)C)NC(=O)[C@H](CCC(=O)O)NC(=O)[C@@H]2CCCN2C(=O)[C@H](Cc2c[nH]c3ccccc23)NC(=O)[C@H](Cc2c[nH]c3ccccc23)NC(=O)[C@H](CC(=O)O)NC(C)=O)CSCc2cccc(c2)CSC[C@@H](C(=O)NCCCOCCOCCOCCCNC(=O)CCC(=O)N[C@@H](CCCCNC(=O)CN2CCN(CC(=O)O)CCN(CC(=O)O)CCN(CC(=O)O)CC2)C(N)=O)NC1=O [GIP-134, Ac-Asp-Trp-Trp-Pro-Glu-Leu-[Cys(3MeBn)-Aib-Cha-Ile-Cys]-Ttds-Lys(DOTA)-NH2] (Ac-DWWPELC[Aib][Cha]IC-X5; linker 7-11 via mXylylene)	10 to 79.4 nM
CC[C@H](C)[C@@H]1NC(=O)[C@H](CC(C)C)NC(=O)C(C)(C)NC(=O)[C@@H](NC(=O)[C@@H](CC(C)C)NC(=O)[C@H](CCC(=O)O)NC(=O)[C@@H]2CCCN2C(=O)[C@H](Cc2c[nH]c3ccccc23)NC(=O)[C@H](Cc2c[nH]c3ccccc23)NC(=O)[C@H](CC(=O)O)NC(=O)CCc2ccccc2)CSCc2cccc(c2)CSC[C@@H](C(=O)NCCCOCCOCCOCCCNC(=O)CCC(=O)N[C@@H](CCCCNC(=O)CN2CCN(CC(=O)O)CCN(CC(=O)O)CCN(CC(=O)O)CC2)C(N)=O)NC1=O [GIP-135, Php-Asp-Trp-Trp-Pro-Glu-leu-[Cys(3MeBn)-Aib-Leu-Ile-Cys]-Ttds-Lys(DOTA)-NH2] (Hydrocinnamoyl-DWWPE[dL]C[Aib]LIC-X5; linker 7-11 via mXylylene)	10 to 79.4 nM
CC[C@H](C)[C@@H]1NC(=O)[C@H](CC(C)C)NC(=O)C(C)(C)NC(=O)[C@@H](NC(=O)[C@@H](CC(C)C)NC(=O)[C@H](CCC(=O)O)NC(=O)[C@@H]2CCCN2C(=O)[C@H](Cc2c[nH]c3ccccc23)NC(=O)[C@H](Cc2c[nH]c3ccccc23)NC(=O)[C@H](CC(=O)O)NC(=O)CCc2ccc(F)cc2)CSCc2cccc(c2)CSC[C@@H](C(=O)NCCCOCCOCCOCCCNC(=O)CCC(=O)N[C@@H](CCCCNC(=O)CN2CCN(CC(=O)O)CCN(CC(=O)O)CCN(CC(=O)O)CC2)C(N)=O)NC1=O [GIP-136, 4FPhp-Asp-Trp-Trp-Pro-Glu-leu-[Cys(3MeBn)-Aib-Leu-Ile-Cys]-Ttds-Lys(DOTA)-NH2] ({Propanoyl(3-(4-F-phenyl))}-DWWPE[dL]C[Aib]LIC-X5; linker 7-11 via mXylylene)	10 to 79.4 nM
CC[C@H](C)[C@@H]1NC(=O)[C@H](CC(C)C)NC(=O)C(C)(C)NC(=O)[C@@H](NC(=O)[C@@H](CC(C)C)NC(=O)[C@H](CCC(=O)O)NC(=O)[C@@H]2CCCN2C(=O)[C@H](Cc2c[nH]c3ccccc23)NC(=O)[C@H](Cc2c[nH]c3ccccc23)NC(=O)[C@H](CC(=O)O)NC(=O)CCc2ccc(O)cc2)CSCc2cccc(c2)CSC[C@@H](C(=O)NCCCOCCOCCOCCCNC(=O)CCC(=O)N[C@@H](CCCCNC(=O)CN2CCN(CC(=O)O)CCN(CC(=O)O)CCN(CC(=O)O)CC2)C(N)=O)NC1=O [GIP-137, 4OHPhp-Asp-Trp-Trp-Pro-Glu-leu-[Cys(3MeBn)-Aib-Leu-Ile-Cys]-Ttds-Lys(DOTA)-NH2] (Desaminotyrosyl-DWWPE[dL]C[Aib]LIC-X5; linker 7-11 via mXylylene)	10 to 79.4 nM
CC(=O)N[C@@H](CC(=O)O)C(=O)N[C@@H](Cc1c[nH]c2ccccc12)C(=O)N[C@@H](Cc1cccc2ccccc12)C(=O)N1CCC[C@H]1C(=O)N[C@@H](CCC(=O)O)C(=O)N[C@H](CC(C)C)C(=O)N[C@H]1CSCc2cccc(c2)CSC[C@@H](C(=O)NCCCOCCOCCOCCCNC(=O)CCC(=O)N[C@@H](CCCCNC(=O)CN2CCN(CC(=O)O)CCN(CC(=O)O)CCN(CC(=O)O)CC2)C(N)=O)NC(=O)[C@H](C(C)C)NC(=O)[C@H](CC(C)C)NC(=O)[C@H](C)NC1=O [GIP-138, Ac-Asp-Trp-1Ni-Pro-Glu-leu-[Cys(3MeBn)-Ala-Leu-Val-Cys]-Ttds-Lys(DOTA)-NH2] (Ac-DW[1Nal]PE[dL]CALVC-X5; linker 7-11 via mXylylene)	10 to 79.4 nM
CC[C@H](C)[C@@H]1NC(=O)[C@H](CC(C)C)NC(=O)C(CC)(CC)NC(=O)[C@@H](NC(=O)[C@@H](CC(C)C)NC(=O)[C@H](CCC(=O)O)NC(=O)[C@@H]2CCCN2C(=O)[C@H](Cc2cccc3ccccc23)NC(=O)[C@H](Cc2c[nH]c3ccccc23)NC(=O)[C@H](CC(=O)O)NC(C)=O)CSCc2cccc(c2)CSC[C@@H](C(=O)NCCCOCCOCCOCCCNC(=O)CCC(=O)N[C@@H](CCCCNC(=O)CN2CCN(CC(=O)O)CCN(CC(=O)O)CCN(CC(=O)O)CC2)C(N)=O)NC1=O [GIP-139, Ac-Asp-Trp-1Ni-Pro-Glu-leu-[Cys(3MeBn)-Deg-Leu-Ile-Cys]-Ttds-Lys(DOTA)-NH2] (Ac-DW[1Nal]PE[dL]C[Deg]LIC-X5; linker 7-11 via mXylylene)	10 to 79.4 nM
CC[C@H](C)[C@@H]1NC(=O)[C@H](CC(C)C)NC(=O)C(C)(C)NC(=O)[C@@H](NC(=O)[C@@H](CC(C)C)NC(=O)[C@H](CCC(=O)O)NC(=O)[C@@H]2CCCN2C(=O)[C@H](Cc2c[nH]c3cc(F)ccc23)NC(=O)[C@H](Cc2c[nH]c3ccccc23)NC(=O)[C@H](CC(=O)O)NC(C)=O)CSCc2cccc(c2)CSC[C@@H](C(=O)NCCCOCCOCCOCCCNC(=O)CCC(=O)N[C@@H](CCCCNC(=O)CN2CCN(CC(=O)O)CCN(CC(=O)O)CCN(CC(=O)O)CC2)C(N)=O)NC1=O [GIP-140, Ac-Asp-Trp-6Fw-Pro-Glu-leu-[Cys(3MeBn)-Aib-Leu-Ile-Cys]-Ttds-Lys(DOTA)-NH2] (Ac-DW[Trp(6-F)]PE[dL]C[Aib]LIC-X5; linker 7-11 via mXylylene)	10 to 79.4 nM
CC[C@H](C)[C@@H]1NC(=O)[C@H](CC(C)C)NC(=O)C(C)(C)NC(=O)[C@@H](NC(=O)[C@@H](CC(C)C)NC(=O)[C@H](CCC(=O)O)NC(=O)[C@@H]2CCCN2C(=O)[C@H](Cc2c[nH]c3ccccc23)NC(=O)[C@H](Cc2c[nH]c3cc(Cl)ccc23)NC(=O)[C@H](CC(=O)O)NC(=O)CCC(=O)NCCCOCCOCCOCCCNC(=O)CN2CCN(CC(=O)O)CCN(CC(=O)O)CCN(CC(=O)O)CC2)CSCc2cccc(c2)CSCCNC1=O [GIP-141, DOTA-Ttds-Asp-6Clw-Trp-Pro-Glu-leu-[Cys(3MeBn)-Aib-Leu-Ile-AET]] ({X3-Suc}-D[Trp(6-Cl)]WPE[dL]C[Aib]LI; linker 7-C via X7)	10 to 79.4 nM
CC[C@H](C)[C@@H]1NC(=O)[C@H](CC(C)C)NC(=O)C2(CCOCC2)NC(=O)[C@@H](NC(=O)[C@@H](CC(C)C)NC(=O)[C@H](CCC(=O)O)NC(=O)[C@@H]2C[C@@H](O)CN2C(=O)[C@H](Cc2c[nH]c3ccc(Cl)cc23)NC(=O)[C@H](Cc2c[nH]c3ccccc23)NC(=O)[C@H](CC(=O)O)NC(C)=O)CSCc2cc(cc(CN3CCN(C(=O)CN4CCN(CC(=O)O)CCN(CC(=O)O)CCN(CC(=O)O)CC4)CC3)c2)CSC[C@@H](C(N)=O)NC1=O [GIP-145, Ac-Asp-Trp-5Clw-Hyp-Glu-leu-[Cys(tMeBn(DOTA-PP))-Thp-Leu-Ile-Cys]-NH2] (Ac-DW[Trp(5-Cl)][Hyp]E[dL]C[Thp]LIC-NH2; linker 7-11 via X19)	10 to 79.4 nM
CC[C@H](C)[C@@H]1NC(=O)[C@H](CC(C)C)NC(=O)C2(CCN(C(=O)CN3CCN(CC(=O)O)CCN4CCN(CC3)CC(=O)[O][Zn][O]C(=O)C4)CC2)NC(=O)[C@@H](NC(=O)[C@@H](CC(C)C)NC(=O)[C@H](CCC(=O)O)NC(=O)[C@@H]2C[C@@H](O)CN2C(=O)[C@H](Cc2c[nH]c3ccc(Cl)cc23)NC(=O)[C@H](Cc2c[nH]c3ccccc23)NC(=O)[C@H](CC(=O)O)NC(=O)CCCC(=O)NC[C@H](O)[C@@H](O)[C@H](O)[C@H](O)CO)CSCc2cccc(n2)CSCCNC1=O [GIP-147, AGLU-Glutar-Asp-Trp-5Clw-Hyp-Glu-leu-[Cys(2Lut)-Apc(ZnDOTA)-Leu-Ile-AET]] ({NH(1-deoxy-D-glucityl)-Glutaryl}-DW[Trp(5-Cl)][Hyp]E[dL]C[Api](X26)LI; linker 7-C via X6)	< 10 nM
